Data reported in patent US11142588B2, “Polypeptides which bind C-X-C chemokine receptor type 4 (CXCR4) and methods of treating or reducing the risk of fibrosis and cancer” (AdAlta Limited, priority 2015, dated 2021).
Entries after “also recorded” stand apart in the source; their conditions may differ.

Tests used:
[1] = Murine air pouch model with SDF-1; type: in vivo, BALB/c mice; settings: intraperitoneal, 30 minutes before SDF-1 6 μg
Method: The ability of i-bodies to block inflammation was evaluated in an in vivo murine air pouch model. The subcutaneous (s.c.) air pouch is an in vivo model used to study acute and chronic inflammation (Durate et al, Models of Inflammation: Carrageenan Air Pouch, Current Protocols in Pharmacology 5.6.1-5.6.8, March 2012). Injection of irritants into an air pouch in rats or mice induces an inflammatory response that can be quantified by the volume of exudate produced, the infiltration of cells, and the release of inflammatory mediators. An air pouch, is generated by injection of sterile air under the skin of the back of the mouse. […] Air pouch lavage fluid is then analyzed for cell trafficking and cytokine release.
The air pouch assay was performed on 7-week-old BALB/c mice. On days 1 and 3, 0.2 ml/g initial body weight (IBW) of sterile air was injected under the back skin to create the pouch. […] Thirty minutes later, SDF-1 (6 μg) was injected into the pouch. Four hours later, the mice were killed in a CO2 chamber and the air pouch was washed. Cells were collected, counted, and characterized by flow cytometry.

[2] = system: human CD34+ stem and progenitor cells; test: Mobilisation of human CD34+ cells in humanised NSG mice; type: in vivo, humanized NODSIL2Rγ (NSG) mice; settings: humanised NSG mouse model, compared to AMD3100
Method: To acquire evidence of mobilisation of human CD34^+ stem and progenitor cells using CXCR4 i-bodies, the above mobilisation experiment was conducted in humanized NODSIL2Rγ (NSG) mice. NSG mice are severely immunodeficient and lack mature T cells, B-cells and NK cells and have severely defective innate immunity, which allows engraftment of human cells without subsequent rejection. NSG mice were transplanted with freshly sorted CD34^+ cord blood cells and upon confirmation of positive human CD45/CD34 engraftment (˜4-5 weeks) were used as a mouse model for human stem cell mobilisation.
Mobilised peripheral blood was harvested and assessed for CD34^+ (human stem and progenitors).

[3] = Bleomycin mouse model of pulmonary fibrosis; type: in vivo
In short: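 Mice received bleomycin 2 U/mouse, with i-body dosed just before; at day 4, BAL SDF-1, lung fibrocytes (CD45+ CXCR4+ Collagen1+ by flow cytometry of collagenase/dispase suspensions), Sircol collagen staining and Col-1, Col-3, SDF-1 RNA were assessed. A separate 21-day bleomycin study tested PEGylated i-body.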

[4] = system: Human platelet rich plasma; test: SDF-1α induced platelet aggregation; type: cell-based; settings: 10 or 20 ug/mL, 100 nM SDF-1 alpha
Method: Experiments were carried out to examine whether the i-bodies could block platelet aggregation induced by SDF-1α. […] In the presence of negative control i-body 21H5 (or the isotype control for 12G5: mouse IgG2a). SDF-1 induced a robust and reproducible aggregation (the descending black curves, which indicate an increase in light transmission), which matches with what has been previously published.

[5] = system: white blood cells, LSK and LSKSLAM cells in peripheral blood; test: Stem cell mobilisation in mice after i.v. injection; type: in vivo, mouse; settings: 1 and 3 hours after i.v. injection, compared to AMD3100
Method: After 1 and 3 hours, mice were euthanized and peripheral blood (PB) harvested. Spleens were harvested and weighed to assess for splenomegaly (enlargement of the spleen). Samples were lysed to remove red blood cells and 4000 cells plated for LPP (low-proliferative potential) and CFU-HPP (colony forming unit-high proliferative potential) colonies (colony counting 7 days post-plating). The remaining cells were stained with an antibody cocktail to assess lineage-committed, stem and progenitor cell content. Flow cytometric analysis was used to calculate numbers of lineage-committed cells, haemopoietic stem and progenitor cells as well as enriched HSC per volume of PB.

Ramos tumor cells = test: MTT cell proliferation assay; type: cell-based, human; settings: 24 to 72 hrs, AM3-114 at 10 μM
Method: The ability of the CXCR4 molecules or polypeptides disclosed herein (i-bodies) to inhibit proliferation of Ramos tumor cells, a human Burkitt's lymphoma cell line expressing CXCR4 mentioned above, in vitro was examined in a MTT cell proliferation assay as described in (Lapteva (2005) Cancer Gene Therapy 12, 84-89). Cells were grown in a 96-well tissue culture plate and treated with a vehicle or the anti-CXCR4 body. The cells were then incubated with the MTT solution for approximately 4 hours. After this incubation period, a water-insoluble formazan dye is formed. After solubilization, the formazan dye is quantitated using a scanning multi-well spectrophotometer (ELISA reader).

human CD34+CD38− HSC = test: In vitro flow cytometric binding to HSC; type: cell-based; settings: 10 μg/ml; for binding to human Cord Blood HSC: in decreasing avidity
Method: To determine whether CXCR4 i-bodies bind HSC, in vitro binding analysis to human CD34+CD38^− cells was assessed. Umbilical cord blood (CB) and human bone marrow (BM) were collected as previously described (Nilsson S K et al, 2005 15; 106(4):1232-9; Grassinger, 2009 2; 114(1):49-59). Enriched human BM CD34+ cells and purified CB CD34^+ cells were isolated as previously described (Grassinger, 2009). Human CB and BM CD34+ cells and huNSG BM were stained sequentially with CXCR4 i-bodies (10 μg/ml), anti-His-PE and an antibody cocktail containing CD34-FITC (BD Biosciences #348053) and CD38-BV421 (BD Horizon #562444), washed with PBS (0.5% BSA) and analysed by flow cytometry on a Cytopeia Influx (BD) as previously described (Grassinger, 2009). For analysis of human and murine BM and PB, up to 5×10^6 cells were analyzed at 10-20,000 cells/sec. Data were analyzed using FlowJo 10 software (FlowJo, LLC). For analysis of huNSG BM, huCD45-PECy7 (BD Biosciences #557748) and muCD45-BUV395 (BD Biosciences #564279) were also included in the antibody cocktail. HSC from human CB and BM were defined as CD34+CD38− and HSC from huNSG mice were defined as muCD45^−huCD45^+CD34^+CD38^−. CB and BM samples from 3 individual donors and BM from 3 individual huNSG mice were assessed.

AM3-114: affinity matured CXCR4 i-body, SEQ ID NO: 40
cell migration / leukocyte infiltration into the air pouch [1]: inhibiting leukocyte infiltration; also recorded: inhibited cell migration
mobilisation of human CD34+ stem cells [2]: do not mobilise stem cells
collagen content of the lung (Sircol) ([3]; 30 mg/kg): reduced the collagen content
recruitment of fibrocytes into the lungs ([3]; 30 mg/kg, day 4, CD45+ CXCR4+ Col 1+ cells): dramatically attenuate
blocking of SDF-1α induced platelet aggregation [4]: most effective; also recorded: most efficient
mobilisation of white blood cells [5]: No mobilisation
growth of RAMOS cells (Ramos tumor cells): substantially inhibit the growth
binding to human Bone Marrow HSC and Bone Marrow from huNSG mice (human CD34+CD38− HSC): effectively bound
binding to human Cord Blood HSC (human CD34+CD38− HSC): effectively bound

B1: AM3-523: affinity matured CXCR4 i-body, SEQ ID NO: 56 (protein)
chain: LQVDIVPSQGEISVGESKFFLCQVAGSGSHMRISWFSPNGEKLTPNQQRISVVWNDDSSSTLTIYNANIDDAGIYKCVVWVGGYRHRALVLGEATVNVKIFQ
modifications: protein sequence encoding AM3-523
cell migration / leukocyte infiltration into the air pouch [1]: inhibiting leukocyte infiltration; also recorded: inhibited cell migration
mobilisation of human CD34+ stem cells [2]: do not mobilise stem cells
recruitment of fibrocytes into the lungs ([3]; 1 mg/Kg, day 4): block recruitment of fibrocytes
collagen content of the lung (Sircol) ([3]; 30 mg/kg): reduced the collagen content
recruitment of fibrocytes into the lungs ([3]; day 4, dose not given): significantly attenuate
blocking of SDF-1α induced platelet aggregation [4]: blocked aggregation to the same extent as the MAb12G5
mobilisation of white blood cells [5]: No mobilisation
growth of RAMOS cells (Ramos tumor cells): no observable effect
binding to human Cord Blood HSC (human CD34+CD38− HSC): effectively bound
